Source: the supplement of paper PMC10307832

Columns and labels:
Experiment in all cases: relative viability (nuclei count vs DMSO), 5 days (fraction); higher = more cells survive
[1] = compound: CCN1C(=O)C2=CC(=C(N=C2N(C1=O)C3CC3)N)C(=O)N + CS(=O)(=O)N1CCN(Cc2cc3nc(-c4cccc5[nH]ncc45)nc(N4CCOCC4)c3s2)CC1 [Pictilisib] (partner 1 µM)
Outline: (§1)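 Lung cancer cell lines, seeded in 1536-well plates, were treated the following day by pin tool with a single drug or with five library-drug doses (not always all listed) in √10 steps on top of a fixed anchor-drug dose. Cells were fixed and nuclei stained in one step after 5 days, and nuclei were counted. Relative viability is the nuclei count for treated wells divided by that for vehicle wells, reported as medians of duplicate plates.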

[2] = compound: CCN1C(=O)C2=CC(=C(N=C2N(C1=O)C3CC3)N)C(=O)N + CS(=O)(=O)CCNCc1ccc(-c2ccc3ncnc(Nc4ccc(OCc5cccc(F)c5)c(Cl)c4)c3c2)o1 [Lapatinib] (partner 2 µM)
Outline: as §1

[3] = compound: CCN1C(=O)C2=CC(=C(N=C2N(C1=O)C3CC3)N)C(=O)N + COc1cc2c(Oc3ccc(NC(=O)C4(C(=O)Nc5ccc(F)cc5)CC4)cc3F)ccnc2cc1OCCCN1CCOCC1 [Foretinib] (partner 0.25 µM)
Outline: as §1

[4] = compound: CCN1C(=O)C2=CC(=C(N=C2N(C1=O)C3CC3)N)C(=O)N + C[C@]1(O)C[C@@H](c2nc(-c3ccc4ccc(-c5ccccc5)nc4c3)c3c(N)nccn32)C1 [Linsitinib] (partner 1 µM)
Outline: as §1

[5] = compound: CCN1C(=O)C2=CC(=C(N=C2N(C1=O)C3CC3)N)C(=O)N + N=C(N)NC(=N)NCCc1ccccc1 [Phenformin] (partner 250 µM)
Outline: as §1

[6] = compound: CCN1C(=O)C2=CC(=C(N=C2N(C1=O)C3CC3)N)C(=O)N + O=C(c1cc(Cc2n[nH]c(=O)c3ccccc23)ccc1F)N1CCN(C(=O)C2CC2)CC1 [Olaparib] (partner 8 µM)
Outline: as §1

[7] = compound: CCN1C(=O)C2=CC(=C(N=C2N(C1=O)C3CC3)N)C(=O)N + CC1(C)CCC(c2ccc(Cl)cc2)=C(CN2CCN(c3ccc(C(=O)NS(=O)(=O)c4ccc(N[C@H](CCN5CCOCC5)CSc5ccccc5)c(S(=O)(=O)C(F)(F)F)c4)cc3)CC2)C1 [Navitoclax] (partner 0.5 µM)
Outline: as §1

[8] = compound: CCN1C(=O)C2=CC(=C(N=C2N(C1=O)C3CC3)N)C(=O)N + Nc1ncn([C@H]2C[C@H](O)[C@@H](CO)O2)c(=O)n1 [Decitabine] (partner 2 µM)
Outline: as §1

[9] = compound: CCN1C(=O)C2=CC(=C(N=C2N(C1=O)C3CC3)N)C(=O)N + Cc1nc(NC(=O)N2CCC[C@H]2C(N)=O)sc1-c1ccnc(C(C)(C)C(F)(F)F)c1 [Alpelisib] (partner 2 µM)
Outline: as §1

[10] = compound: CCN1C(=O)C2=CC(=C(N=C2N(C1=O)C3CC3)N)C(=O)N + C[C@@H](Oc1cc(-c2cnn(C3CCNCC3)c2)cnc1N)c1c(Cl)ccc(F)c1Cl [Crizotinib] (partner 1 µM)
Outline: as §1

[11] = compound: CCN1C(=O)C2=CC(=C(N=C2N(C1=O)C3CC3)N)C(=O)N
Outline: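 Five library-drug doses, separated by factors of √10, were pinned into 1536-well plates holding lung cancer cell lines after an overnight stay at 37 °C. Cells were fixed, permeabilised and Hoechst-stained in one step after 5 days without medium change, then imaged at 4×. Viability compares treated-well with vehicle-well nuclei, counted in MetaXpress, as a median across plates. Passing plates had control CV below 25% and at least one doubling.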

[12] = compound: CCN1C(=O)C2=CC(=C(N=C2N(C1=O)C3CC3)N)C(=O)N + CC(=O)Nc1cccc(-n2c(=O)n(C3CC3)c(=O)c3c(Nc4ccc(I)cc4F)n(C)c(=O)c(C)c32)c1 [Trametinib] (partner 0.02 µM)
Outline: as §1

[13] = compound: CCN1C(=O)C2=CC(=C(N=C2N(C1=O)C3CC3)N)C(=O)N + NC(=O)Nc1cc(-c2cccc(F)c2)sc1C(=O)N[C@H]1CCCNC1 [AZD7762] (partner 0.2 µM)
Outline: as §1

[14] = compound: CCN1C(=O)C2=CC(=C(N=C2N(C1=O)C3CC3)N)C(=O)N + COc1cccc2cc(-c3nc([C@H]4CC[C@H](C(=O)O)CC4)n4ncnc(N)c34)[nH]c12 [OSI-027] (partner 0.5 µM)
Outline: as §1

[15] = compound: CCN1C(=O)C2=CC(=C(N=C2N(C1=O)C3CC3)N)C(=O)N + Nc1nc2[nH]cc(CCc3ccc(C(=O)N[C@@H](CCC(=O)O)C(=O)O)cc3)c2c(=O)[nH]1 [Pemetrexed] (partner 0.2 µM)
Outline: as §1

[16] = compound: CCN1C(=O)C2=CC(=C(N=C2N(C1=O)C3CC3)N)C(=O)N + CC(=O)c1c(C)c2cnc(Nc3ccc(N4CCNCC4)cn3)nc2n(C2CCCC2)c1=O [Palbociclib] (partner 0.5 µM)
Outline: as §1

[17] = compound: CCN1C(=O)C2=CC(=C(N=C2N(C1=O)C3CC3)N)C(=O)N + O=C(CCCCCCC(=O)Nc1ccccc1)NO [Vorinostat] (partner 1 µM)
Outline: as §1

[18] = compound: CCN1C(=O)C2=CC(=C(N=C2N(C1=O)C3CC3)N)C(=O)N + Cc1cc(Nc2cc(N3CCN(C)CC3)nc(Sc3ccc(NC(=O)C4CC4)cc3)n2)n[nH]1 [Tozasertib] (partner 0.1 µM)
Outline: as §1

[19] = compound: CCN1C(=O)C2=CC(=C(N=C2N(C1=O)C3CC3)N)C(=O)N + CC(C)C[C@H](NC(=O)[C@H](Cc1ccccc1)NC(=O)c1cnccn1)B(O)O [Bortezomib] (partner 0.002 µM)
Outline: as §1

A549 gave a relative viability ([1]; first compound 0.253 µM) of 0.557, a relative viability ([1]; first compound 0.8 µM) of 0.553 and a relative viability ([1]; first compound 2.53 µM) of 0.41. The relative viability ([1]; first compound 8 µM) was 0.592, the relative viability ([2]; first compound 0.253 µM) was 0.981 and the relative viability ([2]; first compound 0.8 µM) was 0.914. It also gave a relative viability ([2]; first compound 2.53 µM) of 0.94, a relative viability ([2]; first compound 8 µM) of 1.1 and a relative viability ([3]; first compound 0.253 µM) of 0.898. It also gave a relative viability ([3]; first compound 0.8 µM) of 1.06, a relative viability ([3]; first compound 2.53 µM) of 0.809 and a relative viability ([3]; first compound 8 µM) of 1.01. The relative viability ([4]; first compound 0.8 µM) was 0.605, the relative viability ([4]; first compound 2.53 µM) was 0.505 and the relative viability ([4]; first compound 8 µM) was 0.516. The relative viability ([5]; first compound 0.8 µM) was 0.22, the relative viability ([5]; first compound 2.53 µM) was 0.155 and the relative viability ([5]; first compound 8 µM) was 0.155. It also gave a relative viability ([6]; first compound 0.8 µM) of 0.305, a relative viability ([6]; first compound 2.53 µM) of 0.302 and a relative viability ([6]; first compound 8 µM) of 0.392. It also gave a relative viability ([7]; first compound 0.253 µM) of 1.14, a relative viability ([7]; first compound 0.8 µM) of 1.13 and a relative viability ([7]; first compound 2.53 µM) of 1.22. The relative viability ([7]; first compound 8 µM) was 1.16, the relative viability ([8]; first compound 0.253 µM) was 0.215 and the relative viability ([8]; first compound 0.8 µM) was 0.341. It also gave a relative viability ([8]; first compound 2.53 µM) of 0.218, a relative viability ([8]; first compound 8 µM) of 0.11 and a relative viability ([9]; first compound 0.253 µM) of 0.698. It also gave a relative viability ([9]; first compound 0.8 µM) of 0.858, a relative viability ([9]; first compound 2.53 µM) of 0.746 and a relative viability ([9]; first compound 8 µM) of 0.931. The relative viability ([10]; first compound 0.253 µM) was 0.712, the relative viability ([10]; first compound 0.8 µM) was 0.76 and the relative viability ([10]; first compound 2.53 µM) was 0.732. The relative viability ([10]; first compound 8 µM) was 0.886, the relative viability ([11]; 0.253 µM) was 0.985 and the relative viability ([11]; 0.8 µM) was 1.02. The relative viability ([11]; 2.53 µM) was 0.962 and the relative viability ([11]; 8 µM) was 0.956.
Work on NCI-H1648 yielded a relative viability ([12]; first compound 0.253 µM) of 0.45, a relative viability ([12]; first compound 2.53 µM) of 0.245 and a relative viability ([12]; first compound 8 µM) of 0.386. The relative viability ([13]; first compound 0.253 µM) was 0.706, the relative viability ([13]; first compound 2.53 µM) was 0.646 and the relative viability ([13]; first compound 8 µM) was 0.568. It also gave a relative viability ([14]; first compound 0.253 µM) of 0.265, a relative viability ([14]; first compound 0.8 µM) of 0.271 and a relative viability ([14]; first compound 2.53 µM) of 0.259. For the same cell line, the relative viability ([14]; first compound 8 µM) was 0.278, the relative viability ([15]; first compound 0.253 µM) was 0.735 and the relative viability ([15]; first compound 2.53 µM) was 0.64. The relative viability ([15]; first compound 8 µM) was 0.585, the relative viability ([6]; first compound 0.253 µM) was 0.914 and the relative viability ([6]; first compound 2.53 µM) was 1.07. The relative viability ([6]; first compound 8 µM) was 0.883, the relative viability ([8]; first compound 0.253 µM) was 0.394 and the relative viability ([8]; first compound 2.53 µM) was 0.429. It also gave a relative viability ([8]; first compound 8 µM) of 0.445, a relative viability ([16]; first compound 0.253 µM) of 0.301 and a relative viability ([16]; first compound 2.53 µM) of 0.243. It also gave a relative viability ([16]; first compound 8 µM) of 0.273, a relative viability ([17]; first compound 0.253 µM) of 0.488 and a relative viability ([17]; first compound 2.53 µM) of 0.219. It also gave a relative viability ([17]; first compound 8 µM) of 0.9, a relative viability ([18]; first compound 0.253 µM) of 0.416 and a relative viability ([18]; first compound 0.8 µM) of 0.526. It also gave a relative viability ([18]; first compound 2.53 µM) of 0.423, a relative viability ([18]; first compound 8 µM) of 0.53 and a relative viability ([11]; 0.253 µM) of 0.835. The relative viability ([11]; 0.8 µM) was 0.932, the relative viability ([11]; 2.53 µM) was 0.89 and the relative viability ([11]; 8 µM) was 0.851.
EBC-1 showed a relative viability ([1]; first compound 0.253 µM) of 0.35, a relative viability ([1]; first compound 0.8 µM) of 0.352 and a relative viability ([1]; first compound 2.53 µM) of 0.335. The relative viability ([1]; first compound 8 µM) was 0.494, the relative viability ([2]; first compound 0.253 µM) was 0.186 and the relative viability ([2]; first compound 0.8 µM) was 0.204. It also gave a relative viability ([2]; first compound 2.53 µM) of 0.206, a relative viability ([2]; first compound 8 µM) of 0.211 and a relative viability ([3]; first compound 0.253 µM) of 0.105. The relative viability ([3]; first compound 0.8 µM) was 0.114, the relative viability ([3]; first compound 2.53 µM) was 0.104 and the relative viability ([3]; first compound 8 µM) was 0.119. For the same cell line, the relative viability ([19]; first compound 0.253 µM) was 0.496, the relative viability ([19]; first compound 0.8 µM) was 0.5 and the relative viability ([19]; first compound 2.53 µM) was 0.489. The relative viability ([19]; first compound 8 µM) was 0.61, the relative viability ([4]; first compound 0.253 µM) was 0.851 and the relative viability ([4]; first compound 0.8 µM) was 0.938. It also gave a relative viability ([4]; first compound 2.53 µM) of 0.808, a relative viability ([4]; first compound 8 µM) of 0.886 and a relative viability ([6]; first compound 0.253 µM) of 0.7. The relative viability ([6]; first compound 0.8 µM) was 0.695, the relative viability ([6]; first compound 2.53 µM) was 0.618 and the relative viability ([6]; first compound 8 µM) was 0.777. The relative viability ([7]; first compound 0.253 µM) was 0.441, the relative viability ([7]; first compound 0.8 µM) was 0.43 and the relative viability ([7]; first compound 2.53 µM) was 0.451. For the same cell line, the relative viability ([7]; first compound 8 µM) was 0.378, the relative viability ([9]; first compound 0.253 µM) was 0.84 and the relative viability ([9]; first compound 0.8 µM) was 0.77. For the same cell line, the relative viability ([9]; first compound 2.53 µM) was 0.78, the relative viability ([9]; first compound 8 µM) was 0.834 and the relative viability ([10]; first compound 0.253 µM) was 0.163. It also gave a relative viability ([10]; first compound 0.8 µM) of 0.184, a relative viability ([10]; first compound 2.53 µM) of 0.208 and a relative viability ([10]; first compound 8 µM) of 0.218. For the same cell line, the relative viability ([11]; 0.253 µM) was 0.932, the relative viability ([11]; 0.8 µM) was 1.02 and the relative viability ([11]; 2.53 µM) was 0.979. It also gave a relative viability ([11]; 8 µM) of 1.03.
